{"source": "patent US20230279351A1", "about": "“ARTIFICIAL ANTIGEN-SPECIFIC IMMUNOREGULATORY T (AIRT) CELLS” (Seattle Children's Hospital (dba Seattle Children's …, priority 2019, published 2023)", "key": {"[1]": {"test_system": "split-DISC (#3280 and #3207) dual-edited human CD4+ T cells", "experiment": "Enrichment/expansion of split-DISC dual-edited CD4+ T cells", "assay_type": "cell-based", "settings": "7-day treatment in AP21967 in gREX, from 340,000 cells seeded", "experimental": "Cells were bead-stimulated (CD3/CD28) for 3 days prior to editing. […] Panel C depicts flow plots show the percentage of GFP/mCherry double-positive cells on day 3 post-editing.\nDual-editing was performed as described in FIG. 70.\nSplit-DISC constructs were used to determine the enrichment and expansion of dual-edited T cells. The ability to scale up manufacturing to obtain cell numbers sufficient for animal studies by expanding edited CD4+ T cells in gREX flasks was assessed. In particular, dual-editing and enrichment of human CD4+ T Cells using split-DISC constructs was studied. […] Each repair template (#3280 and #3207) was flanked by identical homology arms matched to a gRNA targeting the TRAC locus. […] Cells were bead stimulated (CD3/CD28) for 3 days prior to editing. Immediately following electroporation, the cells were placed in 2.5% FBS containing media (recovery media) for ~24 hours and then maintained in 20% FBS containing media throughout the rest of the experiment. Three days post editing, cells were analyzed by flow for GFP and mCherry expression, and then expanded in media containing 50 ng/ml human IL-2 or 100 nM Rapalog.\nCells were bead stimulated (CD3/CD28) for 3 days prior to editing. Three days post editing, cells were analyzed by flow for GFP and mCherry expression, and then expanded in media containing 100 nM Rapalog for an additional 7 days."}, "[2]": {"test_system": "split IL-2 CISC (FRB-IL2RB and FKBP-IL2RG) dual-edited human CD4+ T cells", "experiment": "Enrichment of split IL-2 CISC dual-edited CD4+ T cells", "assay_type": "cell-based", "protocol": "FIG. 27 depicts an exemplary timeline of steps for dual AAV editing of CD4+ T cells, expansion with rapalog, and analysis of enriched cells. […] Flow cytometry to assess enrichment of GFP, mCherry double-positive cells was carried out on days 6, 8, and 10 post-editing.\nCISC components (IL2RG vs. IL2RB) are split between 2 constructs and co-expressed with either HA-FoxP3 cDNA or the islet-specific TCR, T1D4 (AAVs #3240 and #3243 respectively). Each repair template is flanked by identical homology arms that […] the gRNA targeting the TRAC locus. […] Panel B depicts a timeline of key steps for dual AAV/RNP-based editing of CD4+ T cells, expansion with Rapalog and analysis of enriched cells. […] Flow cytometry to assess enrichment of HA-FoxP3, TCR double-positive cells was carried out on days 5 and 8 post-editing.\nFIG. 60 relates to a strategy for testing two-loci dual-editing of human CD4+ T cells. […] CISC components are split between 2 constructs and co-expressed with either mCherry or GFP ([…]). Repair templates are flanked by homology arms matched to gRNAs targeting either the TRAC or FOXP3 locus, respectively. […] Panel B depicts a timeline showing steps for dual AAV editing of CD4+ T cells and expansion with Rapalog. Human CD4+ T cells were edited using human TRAC gRNA_4, human FOXP3 gRNA_T9 and #3251 (MND.mCherry.FKBP.IL2RG) and #3207 (MND.GFP.FRB.IL2RB) AAV constructs (two-loci dual editing). Immediately following electroporation, the cells were placed in either 20% or 2.5% FBS containing media (recovery media). After ~16 h, the media was replaced with 20% FBS containing media and FACS analysis done on day 3 to determine editing rate.\nIn order to obtain sufficient numbers of cells for therapeutic use, it may be useful, in some contexts, to selectively expand engineered cells in vitro. […] See e.g., FIG. 108. In such methods, FRB-IL2RB and FKBP-IL2RG components were contained in the same cassette to select for single integration events.\nFor these studies, FRB-IL2RB and FKBP-IL2RG components were split into two separate cassettes, one containing GFP and the other containing mCherry, to allow for selection of two independent integrations.\nA timeline for key steps for dual AAV editing of CD4+ T cells and expansion with Rapalog is depicted in FIG. 124B. […] Briefly, human CD4+ T cells were edited using human TRAC gRNA_4, and #3240 (MND.HA.FOXP3.FKBP.IL2RG) and #3243 (MND.T1D4.FRB.IL2RB) AAV constructs (single-locus dual editing). Immediately following electroporation, the cells were placed in 2.5% FBS containing media (recovery media) for ~24 hours and then maintained in 20% FBS containing media throughout the rest of the experiment."}}}
{"smiles": "CO[C@H]1[C@@H](O)[C@H](C)C[C@H](C)/C=C/C=C/C=C(\\C)[C@@H](c2c[nH]c3c(C)cccc23)C[C@@H]2CC[C@@H](C)[C@@](O)(O2)C(=O)C(=O)N2CCCC[C@H]2C(=O)O[C@H]([C@H](C)C[C@@H]2CC[C@@H](O)[C@H](OC)C2)C[C@H](O)[C@H](C)/C=C(\\C)[C@H]1O", "note": "[Rapalog]", "values": [{"measurement": "expansion of double positive cells", "setting": "[1]", "result": 32, "unit": "fold"}, {"measurement": "enrichment of double-positive cells", "setting": "[2]; #3240 and #3243, cells recovered in 2.5% FBS, 7 days of Rapalog treatment", "result": "~10", "unit": "fold"}, {"measurement": "FOXP3/T1D4 double positive cells", "setting": "[2]; #3240 and #3243, day 7, 100 nM AP21967 or 50 ng/mL IL-2, initial 1.6%", "result": 19.1, "unit": "%"}, {"measurement": "GFP/mCherry double-positive cells", "setting": "[2]; donor R003471, enriched in presence of Rapalog (FIG. 32)", "result": 28.5, "unit": "%"}, {"measurement": "GFP/mCherry double-positive cells", "setting": "[2]; donor R003657, enriched in presence of Rapalog (FIG. 32)", "result": 13.8, "unit": "%"}, {"measurement": "enrichment of double-positive antigen-specific Treg population", "setting": "[2]; over the course of the 10 day study", "result": "approximately 15 fold"}, {"measurement": "GFP/mCherry double-positive cells", "setting": "[2]; two-loci #3207 and #3251, repeat experiment (FIG. 65), 10 days, initial 15.4%", "result": 54, "unit": "%"}]}
